According to patent publication US7312305B2, “Tumor cytotoxicity induced by modulators of the CXCR4 receptor” (Morehouse School of Medicine, priority 2003, dated 2007):

Assays:
[1] = system: epithelial tumor cell lines, HUVECs; assay: Apoptotic assay with gp 120 and Nef peptides; format: cell-based, human
From the text: The nef protein was expressed and purified in the inventors' laboratory. overlapping 20 mer peptides encompassing the entire nef protein and overlapping 15 mer peptides encompassing the entire gp 120 protein were obtained from the NIH AIDS Research & Reference Reagent Program (McKesson HBC BioServices, MD) Other specific peptides designed from within gp 120 or nef were obtained from SigmaGenosys.
Apoptosis, Terminal Deoxynucleotidyl Transferase dUTP Nick-end Labeling (TUNEL) Assay
Apoptosis generates DNA free ends which can be labeled in situ using terminal deoxynucleotidyl-transferase (TdT), incorporating an exogenously added labeled nucleotide to the DNA strand. This label can then be visualized directly by fluorescence or indirectly using anti-FITC-peroxidase, and a calorimetric assay. Cells on coverslips were washed with PBS, and fixed for 30 minutes at RT with 4% paraformaldehyde, in PBS, pH 7.4. They were then washed with PBS, and permeabilized with 0.1% Triton X-100
for 10 minutes at room temperature (RT). The slides were rinsed twice with PBS, and air dried for 2 minutes. The manufacturer's procedure for TUNEL staining the slides was followed (manufacturer's procedure for the In Situ Cell Death Detection Kit, AP; Boehringer Mannheim, Indianapolis, Ind.). Total cell counts were determined by counterstaining fixed cultures with 20 μg/ml of Hoechst 33258. All specimens were observed by epifluorescence on a computer-controlled microscope system based on a Zeiss Axioskop microscope (Carl Zeiss, Thornwood, N.Y.), and the images were obtained and examined using a charged coupled device (CCD) camera, MagnaFire, model S99806 (Olympus American, Melville, N.Y.). Images were examined using Image-Pro Plus 4.1 for Windows (Media Cybernetics, Silver Springs, Md.) software.
Overlapping peptide sets obtained from the AIDS Reagent Bank were used in the apoptotic assay as disclosed above. Specific pg 120 and Nef peptides within those sets were identified as inducing apoptosis in epithelial tumor cell lines, as well as in HUVECs. Alternatively, these same peptides had no effect in primary mammary epithelium or in MDA-MB-468 tumor lines.

[2] = system: MDA-MB-231, MCF7, DU4475; assay: Agarose gel electrophoresis/DNA fragmentation, CXCR4 expressing cell lines; format: cell-based, human; details: 10 mM (6.35 mg/ml) ceramide
Procedure: Apoptosis Assay: Agarose Gel Electrophoresis/DNA Fragmentation
Untreated or treated cells were collected, and DNA was harvested from normal or cancer cell cultures. Briefly, the cells were washed with PBS, pelleted at 1600 g for 20 minutes at 4° C., and resuspended in 50 mM Tris-HCl, pH 7.5, 20 mM EDTA buffer at about 10^ 7 cells/ml. The cells were then treated 2× with lysis buffer: 1.0% NP-40 (Sigma, St. Louis, Mo.) in the same Tris/EDTA buffer at RT for 2 minutes followed, by centrifugation at 1600 g for 5 minutes. After the last spin, SDS was added to the supernatant to 1% final concentration, RNase A (Sigma, St. Louis, Mo.) was added to 5 mg/mil final concentration, and the solution incubated at 56° C. for 2 hours. Subsequently, protease K (Promega, Madison, Wis.) was added to the solution to 2.5. µg/ml and incubated at 37° C. for 2.5 hr. Ammonium acetate was added to 4 M final concentration, 0.7 volumes of isopropanol was added, the solution was put at −20° C. overnight followed by centrifugation at 14,000 rpm for 30 minutes. The pellets were washed twice with 70% ethanol, dried and resuspended in 10 mM Tris-HCl, pH […]. DNA samples, 18 µg per condition, were prepared in neutral loading buffer to a final concentration of 0.02% bromophenol blue, 5% glycerol, 0.1% SDS, and 50 µg of ethidium bromide, loaded onto a neutral agarose gel (1.7%), and run at50V for 2.5 hours. […]

With “ALAETCONAWA [Seq. I.D. No. 8, reference compound]” as the substance, how does the “apoptotic/modulator properties of peptide or motif” value [1] read?
Its value is “lost all apoptotic effects”.

Ceramide was tested. Which “DNA laddering, positive control” value [2] did it give?
Its value is “DNA laddering characteristic of apoptotic cells was observed”.

“GRAFYTT [Seq. I.D. No. 9, motif within the V3 loop of Gp 120, amino acids 315 to 321]” was tested. Which “apoptotic/modulator properties of peptide or motif” value [1] did it give?
Its value is “apoptosis-inducing motif”.

Which “apoptosis relative to that observed from the full gp 120 protein” value ([1]; equivalent molar ration (9 mer peptide is 2% of the full protein)) does the source give for GRAFYTTKY [Seq. I.D. No. 11] here?
Its value is “about 60%”.

For “NAACAWLEAQ [Seq. I.D. No. 7, 10 mer peptide spanning amino acids 50-60 of the Nef protein]”, which “apoptosis relative to that observed for the full Nef protein” value ([1]; equivalent molar ration (10 mer peptide is 5% the amount of full protein)) is on record?
The value was about 100%.
